Patent US9983218B2, “Indole and indoline derivatives and methods of use thereof” (AbbVie Inc., priority 2008, dated 2018)

System: SK-N-SH human neuroblastoma cells
Assay: Serum deprivation/JC-1 mitochondrial membrane potential (MMP) assay
Type: cell-based
Conditions: Homo sapiens; for Emax: SK-N-SH, percent maximal intensity in JC-1 ratio normalized to 10 μM dimebolin, read-out: JC-1 max %; for EC50: SK-N-SH cells, serum deprivation ~18 hours, JC-1 ratio normalized to peak value for 10 μM dimebolin, single curve fit to mean data of n=2-3, read-out: EC50
Method: SK-N-SH human neuroblastoma cells obtained from American Type Culture Collection (Rockville, Md.) were maintained in the log phase of growth in Minimal Essential Media (MEM), 10% heat inactivated fetal calf serum and 100 units/mL antibiotic-antimycotic (AA). Cells were cultured and maintained in a humidified incubator at 37° C. under 5% CO2 and 95% air. Cells were trypsinized (0.25%) and subcultured every 3 days and used from 15-18 passages. All cell culture supplies were obtained from Invitrogen (Carlsbad, Calif.).
SK-N-SH cells were plated 2-3 days in advance at a concentration of 50,000 cells/well onto collagen coated black-walled 96 well plates (Becton-Dickinson, Bedford, Mass.) in a total volume of 200 μL. On day of experimental treatment, the media containing serum was aspirated from each well and rinsed once with MEM/1% AA without serum. The cells then were incubated overnight in 100 μL of MEM/1% AA (no serum) with and without dimebolin or novel chemical entities overnight for ˜18 hours. The following day, JC-1 dye (5,5′,6,6′-tetrachloro-1,1′,3,3′-tetraethylbenzimidazolcarbocyanide) was diluted 1:10 into MEM media according to the JC-1 Mitochondrial Membrane Potential Assay Kit: (Cayman Chemical Company, Ann Arbor, Mich.) and then 10 μL of the JC-1 dye solution was added to each well. The plates were centrifuged for 5 minutes at 400×g at room temperature followed by 35 minute incubation at 37° C. The plates were washed twice with 200[…] μL of provided Assay Buffer followed an addition of 100 μL of Assay Buffer to each well. The plates were read with an excitation and emission of 560 nm and 595 nM for red fluorescence and with an excitation and emission of 485 nm and 535 nM for green fluorescence to determine the final JC-1 value taking the red to green fluorescence ratio. This assay is based on change in mitochondrial membrane potential (MMP) using this lipophilic cationic dye, JC-1, by monitoring the changes in the ratio of red to green fluorescence as the MMP depolarizes. This change in MMP reflects the health of the cell with healthy, viable cells have a high JC-1 ratio and high MMP whereas apoptotic, unhealthy cells have a low JC-1 ratio or low MMP.
For the ability of compounds to reverse the stress due to serum deprivation and increase the JC-1 ratio, the percent maximal intensity in JC-1 ratio was normalized to that induced by the peak value for 10 μM dimebolin and plotted against the compound concentration to calculate EC50 values and to control for plate-to-plate variability. Concentration-response data were analyzed using GraphPad Prism (San Diego, Calif.); the EC50 values were derived from a single curve fit to the mean data of n=2-3, in duplicates.
All compounds were dissolved in dimethyl sulfoxide at 10 mM stock solutions and tested at a concentration that the dimethyl sulfoxide levels never exceeded 1%.

Compound | Emax [%] | EC50 [µM]
Cc1ccc2c(c1)[C@H]1[C@H]3CC4C[C@H](CN(C4)C3)[C@H]1N2CCc1ccc(C)nc1 (relative stereo) [Example 194, (1R*,7R*,7aS*,12bR*)-11-methyl-8-[2-(6-methylpyridin-3-yl)ethyl]-1,4,5,6,7,7a,8,12b-octahydro-2H-1,5:3,7-dimethanoazonino[5,4-b]indole] | 321 | 2.18
Cc1ccc2c(c1)[C@@H]1[C@@H](C3CCN1CC3)N2CCc1ccc(C)nc1 (relative stereo) [Example 213, (4aR*,9bR*)-8-methyl-5-[2-(6-methylpyridin-3-yl)ethyl]-2,3,4,4a,5,9b-hexahydro-1,4-ethanopyrido[3,2-b]indole] | 177 | 5.43
Cc1ccc(/C=C\n2c3c(c4cc(C)ccc42)[C@@H]2CC[C@H](C3)N2C)cc1 (single isomer, unassigned) [Example 61] | 211 | 4.37
COc1ccc2c(c1)c1c(n2CCc2ccc(Cl)cc2)C[C@@H]2CC[C@H]1N2C (single isomer, unassigned) [Example 93] | 186 | 4.81
CC(C)c1ccc2c(c1)c1c(n2CCc2ccc(Cl)cc2)C[C@H]2CC[C@@H]1N2C (single isomer, unassigned) [Example 100] | 140 | 3.63
Cc1ccc2c(c1)c1c(n2CCc2ccc(C)nc2)C[C@H]2CCC[C@@H]1N2 (single isomer, unassigned) [Example 120] | 197 | 3.4
Cc1ccc2c(c1)c1c(n2CCc2ccc(C)nc2)C[C@@H]2CCC[C@H]1N2 (single isomer, unassigned) [Example 121] | 129 | 3.63
Cc1ccc2c(c1)c1c(n2CCc2ccccc2C)C[C@H]2CCC[C@@H]1N2 (single isomer, unassigned) [Example 127] | 151 | 3.69
Cc1ccc2c(c1)[C@@H]1CN3CCC(CC3)[C@@H]1N2CCc1ccc(C)nc1 (single isomer, unassigned) [Example 159] | 240 | 2.67
Cc1ccc2c(c1)[C@H]1CN3CCC(CC3)[C@H]1N2CCc1ccc(C)nc1 (single isomer, unassigned) [Example 160] | 194 | 1.61
O=c1ccnc2ccc(-n3c4c(c5ccccc53)[C@H]3CC[C@@H](C4)N3)cn12 (single isomer, unassigned) [Example 283] | 170 | 6.02
O=c1ccnc2ccc(-n3c4c(c5ccccc53)[C@@H]3CC[C@H](C4)N3)cn12 (single isomer, unassigned) [Example 284] | 108 | 7.62
Cc1ccc2c(c1)c1c(n2-c2ccc(-c3ccc(I)cc3)nn2)CC2CCC1N2C (stereo not drawn) [Example 3, 5-[6-(4-iodophenyl)pyridazin-3-yl]-2,11-dimethyl-5,6,7,8,9,10-hexahydro-7,10-epiminocyclohepta[b]indole] | 191 | 5.11
CCN1C2CCC1c1c(n(CCc3ccc(C)nc3)c3ccc(C)cc13)C2 (stereo not drawn) [Example 12, 11-ethyl-2-methyl-5-[2-(6-methylpyridin-3-yl)ethyl]-5,6,7,8,9,10-hexahydro-7,10-epiminocyclohepta[b]indole] | 181 | 5.58
Cc1ccc2c(c1)c1c(n2CCc2ccc(C)nc2)CC2CCC1N2CC(F)(F)F (stereo not drawn) [Example 14, 2-methyl-5-[2-(6-methylpyridin-3-yl)ethyl]-11-(2,2,2-trifluoroethyl)-5,6,7,8,9,10-hexahydro-7,10-epiminocyclohepta[b]indole] | 110 | 4.79
CCOC(=O)N1[C@H]2CC[C@@H]1c1c(n(CCc3ccc(C)nc3)c3ccc(C)cc13)C2 [Example 16, ethyl (7S,10R)-2-methyl-5-[2-(6-methylpyridin-3-yl)ethyl]-5,6,7,8,9,10-hexahydro-7,10-epiminocyclohepta[b]indole-11-carboxylate] | 129 | 8.38
Cc1ccc2c(c1)c1c(n2CCc2ccc(C)nc2)CC2CCC1N2C(=O)c1ccc(Cl)cc1 (stereo not drawn) [Example 17, 11-(4-chlorobenzoyl)-2-methyl-5-[2-(6-methylpyridin-3-yl)ethyl]-5,6,7,8,9,10-hexahydro-7,10-epiminocyclohepta[b]indole] | 345 | 3.53
Cc1ccc2c(c1)c1c(n2CCc2ccc(C)nc2)CC2CCC1N2S(=O)(=O)c1ccc(C(F)(F)F)cc1 (stereo not drawn) [Example 18, 2-methyl-5-[2-(6-methylpyridin-3-yl)ethyl]-11-{[4-(trifluoromethyl)phenyl]sulfonyl}-5,6,7,8,9,10-hexahydro-7,10-epiminocyclohepta[b]indole] | 307 | 3.19
Cc1ccc2c(c1)c1c(n2/C=C/c2ccc(C)nc2)C[C@@H]2CC[C@H]1N2C [Example 23, (7S,10R)-2,11-dimethyl-5-[(E)-2-(6-methylpyridin-3-yl)vinyl]-5,6,7,8,9,10-hexahydro-7,10-epiminocyclohepta[b]indole] | 332 | 3.32
Cc1ccc2c(c1)c1c(n2/C=C\c2ccc(C)nc2)C[C@@H]2CC[C@H]1N2C [Example 24, (7S,10R)-2,11-dimethyl-5-[(Z)-2-(6-methylpyridin-3-yl)vinyl]-5,6,7,8,9,10-hexahydro-7,10-epiminocyclohepta[b]indole] | 221 | 2.26
Cc1ccc2c(c1)c1c(n2CCc2cnc(C)nc2)C[C@@H]2CC[C@H]1N2C [Example 32, (7S,10R)-2,11-dimethyl-5-[2-(2-methylpyrimidin-5-yl)ethyl]-5,6,7,8,9,10-hexahydro-7,10-epiminocyclohepta[b]indole] | 53 | 17.3
Cc1ccc2c(c1)c1c(n2CCc2ccc(C)nn2)C[C@H]2CC[C@@H]1N2C [Example 33, (7R,10S)-2,11-dimethyl-5-[2-(6-methylpyridazin-3-yl)ethyl]-5,6,7,8,9,10-hexahydro-7,10-epiminocyclohepta[b]indole] | 97 | 5.81
Cc1ccc2c(c1)c1c(n2CCc2cnc(C)cn2)C[C@H]2CC[C@@H]1N2C [Example 34, (7R,10S)-2,11-dimethyl-5-[2-(5-methylpyrazin-2-yl)ethyl]-5,6,7,8,9,10-hexahydro-7,10-epiminocyclohepta[b]indole] | 175 | 18.1
Cc1ccc2c(c1)c1c(n2CCc2scnc2C)CC2CCC1N2C (stereo not drawn) [Example 35, 2,11-dimethyl-5-[2-(4-methyl-1,3-thiazol-5-yl)ethyl]-5,6,7,8,9,10-hexahydro-7,10-epiminocyclohepta[b]indole] | 78 | 6.71
Cc1ccc2c(c1)c1c(n2CCc2ccccc2F)CC2CCC1N2C (stereo not drawn) [Example 43, 5-[2-(2-fluorophenyl)ethyl]-2,11-dimethyl-5,6,7,8,9,10-hexahydro-7,10-epiminocyclohepta[b]indole] | 202 | 7.64
Cc1ccc2c(c1)c1c(n2CCc2ccc(Cl)cc2)C[C@H]2CC[C@@H]1N2C [Example 44, (7R,10S)-5-[2-(4-chlorophenyl)ethyl]-2,11-dimethyl-5,6,7,8,9,10-hexahydro-7,10-epiminocyclohepta[b]indole] | 291 | 3.31
Cc1ccc(/C=C/n2c3c(c4cc(C)ccc42)[C@@H]2CC[C@H](C3)N2C)cc1 [Example 59, (7R,10S)-2,11-dimethyl-5-[(E)-2-(4-methylphenyl)vinyl]-5,6,7,8,9,10-hexahydro-7,10-epiminocyclohepta[b]indole] | 202 | 4.14
Cc1ccc2c(c1)c1c(n2CCOc2ccc(F)cc2)CC2CCC1N2C (stereo not drawn) [Example 67, 5-[2-(4-fluorophenoxy)ethyl]-2,11-dimethyl-5,6,7,8,9,10-hexahydro-7,10-epiminocyclohepta[b]indole] | 132 | 6.49
Cc1ccc2c(c1)c1c(n2-c2ccc3ccncc3c2)C[C@@H]2CC[C@H]1N2C [Example 68, (7S,10R)-5-isoquinolin-7-yl-2,11-dimethyl-5,6,7,8,9,10-hexahydro-7,10-epiminocyclohepta[b]indole] | 213 | 3.22
Cc1ccc2c(c1)c1c(n2S(=O)(=O)c2ccccc2)CC2CCC1N2C (stereo not drawn) [Example 69, 2,11-dimethyl-5-(phenylsulfonyl)-5,6,7,8,9,10-hexahydro-7,10-epiminocyclohepta[b]indole] | 161 | 4.43
